{
  "source": "patent US12158399B2",
  "about": "“CaMKK2 inhibitor compositions and methods of using the same” (Duke University, priority 2016, dated 2024)",
  "key": {"E0771 cells [1]": {"system": "E0771 cells", "assay": "Orthotopic E0771 mammary tumor growth", "format": "in vivo, mouse", "settings": "orthotopic graft in syngeneic wildtype mice; STO-609 IP 3-times/week", "protocol": "(§1) E0771, 4T1 and Met1 grafts: 200,000 of the indicated cells were grafted orthotopically into the mammary fat pad of mice. 4T1 and Met1 cells were grafted in 50% matrigel. Resulting tumors were assessed by direct caliper measurement. To get sizable tumors in Camkk2−/− mice for IHC and flow cytometry studies, a higher number of E0771 (4×10^5) where grafted. This information has been reported in the corresponding figures.\n(§2) These drugs were administered intraperitoneally daily. […] GSK treatment was initiated at post-day 2."}, "Met1 cells": {"system": "Met1 cells", "assay": "Orthotopic Met1 mammary tumor growth", "format": "in vivo, mouse", "settings": "syngeneic wildtype mice; IP 100 moles/Kg body weight 3-times/week", "protocol": "as §1\n(§3) […] […] GSK treatment was initiated at post-day 2."}, "E.G7 cells": {"system": "E.G7 cells", "assay": "E.G7 lymphoma flank tumor growth under STO-609 treatment", "format": "in vivo, mouse", "settings": "C57BL/6 mice, peritoneal injection every 2-3 days, vs DMSO; p<0.001", "protocol": "Flank Tumor Model 1×10^5 E.G7 cells were suspended in 100 μl PBS and implanted subcutaneously to the right side flank of the mice. Tumors were monitored using bioluminescence imaging each week. Tumor sizes were measured with calibrator every 3-4 days and calculated as: Length×Width×Width/2. In some experiments 5×10^5 cells were used as indicated. Mice were sacrificed when tumor reached 2 cm^3. ELISpot Analysis\nSTO-609 was purchased from TORIS Bioscience (Bristol, UK). The C57BL/6 mice were purchased from the Jackson Laboratory (CA, USA). The mice were inoculated with 5×10^5 E.G7 cells to the right flank subcutaneously on day 0. On day 7, the tumor growth was measured using bioluminescent imaging. All the mice with visible tumor under luciferin detection were randomized into STO-609 treatment group or DMSO control group. […] The tumor size was monitored using a calibrator every 3-4 days. The experiment was terminated when the tumor reached 2 cm^3."}, "4T1 cells": {"system": "4T1 cells", "assay": "Orthotopic 4T1 mammary tumor growth", "format": "in vivo, mouse", "settings": "syngeneic wildtype mice; IP 3-times/week", "protocol": "as §1, §3"}, "E.G7 tumor": {"system": "E.G7 tumor", "assay": "Flow cytometry of tumors and spleens of E.G7 tumor bearing mice", "format": "in vivo, mouse", "settings": "vs DMSO", "protocol": "The removed tumors were further minced with a surgical scalpel. The tissue were added to 5 ml HBSS w/Ca^2+ and Mg^2+ (ThermoFisher Scientific, MA, USA) supplied with collagenase 2 mg/ml and DNase 0.1 mg/ml (Roche, Basel, Switzerland) in gentleMACS C tubes and dissecting with gentleMACS dissociator (Miltenyi, Bergisch Gladbach, Germany). The samples were incubated in 37° C. for 15 min and passed through the 70 μm cell strainers (Coring, NY, USA). Cells were washed twice in PBS w/2% FBS before staining.\nFor myeloid cells staining, 5×10^6 cells were incubated with FITC anti-mouse CD11c, PE anti-mouse/human CD11b, PE-Cy7 anti-mouse Ly6G, APC anti-mouse F4/80 (all from BioLegend, CA, USA), PerCpCy5.5 anti-mouse Ly6C, Fixable Viability Dye eFluor® 450 (eBioscience, CA, USA) at 4° C. for 15 min in dark and washed with PBS w/2% FBS. The stained cells were analyzed using a BD FACSCanto flow cytometer (BD, NJ, USA). Data is analyzed using FlowJo (TreeStar, OR, USA)."}, "E0771 tumors": {"system": "E0771 tumors", "assay": "Flow cytometry of tumor-associated myeloid and lymphoid cells in E0771 tumors", "format": "in vivo, mouse", "settings": "STO-609 vs vehicle treated mice", "protocol": "Tumors were removed from mice and minced with a surgical scalpel. Minced tissues were added to 5 ml HBSS containing Ca^2+ and Mg^2+ (ThermoFisher Scientific, MA, USA), and supplied with collagenase 2 mg/ml and DNase 0.1 mg/ml (Roche, Basel, Switzerland). Subsequently, they were transferred in gentleMACS C tubes, dissected with gentleMACS dissociator (Miltenyi, Bergisch Gladbach, Germany) and incubated for […] at 37° C. At the end of this incubation, tumors were dissected again with gentleMACS dissociator, and cell suspension passed through 70 μm-cell strainers (Coring, NY, USA), washed twice in PBS w/2% FBS and used for FACS analysis.\nStaining of tumor-infiltrating E0771 tumors: 5×10^6 cells suspension from dissected tumors were surface stained with APC Cy7-CD3, PE-CD8, PE Cy7-CD4, APC PD-1 (all from BioLegend, CA, USA). Cells were incubated for 15 min at 4° C., washed with PBS-2% FCS. PerCP/Cy5.5 PD-1 antibody (BioLegend, CA, USA) was used for intracellular staining on fixed and permeabilized cells, according with manufacture's protocol (BioLegend). For myeloid cells staining, cells were incubated with PE anti-mouse/human CD11b, PE-Cy7 anti-mouse Ly6G, APC anti-mouse F4/80 (all from BioLegend), PerCpCy5.5 anti-mouse Ly6C, APC Cy7-I-A and Fixable Viability Dye eFluor 450 (eBioscience, CA, USA) at 4° C. for 15 min in dark. Subsequently, cells were washed with PBS w/2% FBS and analyzed by FACS. Bone marrow-derived macrophages (1×10^6) were stained with PE anti-mouse/human CD11b, APC anti-mouse F4/80 (BioLegend), APC Cy7-I-A and Fixable Viability Dye eFluor 450 (eBioscience). The stained cells were analyzed using a BD FACSCanto flow cytometer (BD, NJ, USA). Data is analyzed using FlowJo (TreeStar, OR, USA)."}, "E0771 cells [2]": {"system": "E0771 cells", "assay": "E0771 tumor growth in CD8+ T-cell depleted Camkk2-/- mice", "format": "in vivo, mouse", "settings": "anti-CD8 treated Camkk2-/- mice, STO-609 vs vehicle", "protocol": "as §1, §2\nTo deplete CD8+ cells, mice were injected intra-peritoneally with anti-mouse CD8 monoclonal antibody or its IgG control isotype (BioXCell, NH, USA) each at 200 μl at the concentration of 1 mg/ml 4 days and 1 day before tumor inoculation, and every 3 days after tumor cell injection. The effect of CD8 depletion was monitored by flow cytometry using 50 μl peripheral blood staining with APC anti-mouse CD8, APC-Cy7 anti-mouse CD45.2 (BioLegend) at the same time."}, "bone marrow derived MDSC": {"system": "bone marrow derived MDSC", "assay": "In vitro MDSC generation from bone marrow with H2O2 or antioxidants", "format": "cell-based, mouse", "settings": "added Day 0 and Day 3; 0.001 mM H2O2, 20 μM MitoTEMPO, 20 μM BHA", "description": "To further study how ROS regulates MDSC differentiation, low dose of H2O2 and two commonly used antioxidants, MitoTEMPO and Butylated hydroxyanisole (BHA), were separately added to the culture media during MDSC in vitro generation. At basal condition, KO marrow generated less M-MDSC cells while differentiated more into Ly6C−CD11c+I-A+ mature dendritic cells compared to WT ones. […] The higher level of ROS in CaMKK2 KO MDSCs limited M-MDSC accumulation by facilitating the myeloid cell differentiation.\nBone marrow cells were prepared as described before. Cells after RBC lysis were seeded to 6-well plates (Coring, NY, USA) at 1×10^6 per well in 5 ml DMEM (Gibco, MA, USA) supplied with 10% FBS, 2 mM L-glutamine, 1.5 g/L sodium bicarbonate, 10 mM HEPES, 1.0 mM sodium pyruvate (all from Gibco, MA, USA), 10% fetal bovine serum (Hyclone, MA, USA), 40 nM recombinant mouse GM-CSF and 40 nM recombinant mouse IL-6 (Biolegend, CA, USA), and with or without 50% E.G7 supernatant. The supernatant was half-changed on Day 3. The floating cells were collected on Day 5 and enriched by anti-mouse Gr-1 Microbeads (Miltenyi, Bergisch Gladbach, Germany). The cells with the purity >90% were used. In some experiments as indicated, the cells were stained with APC anti-mouse Gr-1, PE anti-mouse/human CD11b (Biolegend, CA, USA). Double positive cells were sorted with BD FACS Aria II cell sorter (BD, NJ, USA).\nFor MDSC and BMDC, only floating cells were collected. 1×10^6 cells were spun down in BD Falcon round-bottom polystyrene tubes (BD, NY, USA). The cell pellet was incubated with 50 μl PBS with 2% FBS with FITC anti-mouse CD11c, PE anti-mouse/human CD11b, PE-Cy7 anti-mouse Ly6G, APC anti-mouse F4/80, APC-Cy7 anti-mouse I-A (all from BioLegend, CA, USA), PerCP Cy5.5 anti-mouse Ly6C, and Fixable Viability Dye eFluor® 450 (eBioscience, CA, USA) at 4° C. for 15 min. Cells were washed once with 2 ml PBS with 2% FBS and fixed with 200 μl 1.5% PFA in 4° C. till analysis."}},
  "data": [
    {"smiles": "CCCc1ccnc2[nH]cc(-c3ccc(C(=O)N[C@@H](CO)c4ccccc4)cc3)c12", "note": "[GSKi]", "values": [
      {"measurement": "E0771 mammary tumor growth (tumor volume)", "setting": "E0771 cells [1]", "value": "inhibited"}
    ]},
    {"smiles": "O=C(O)c1ccc2c3c1cccc3c(=O)n1c3ccccc3nc21", "note": "[STO-609]", "values": [
      {"measurement": "Met1 mammary tumor growth (tumor volume)", "setting": "Met1 cells", "value": "inhibited"},
      {"measurement": "lymphoma growth (E.G7 tumor size)", "setting": "E.G7 cells", "value": "significantly suppressed"},
      {"measurement": "4T1 mammary tumor growth (tumor volume)", "setting": "4T1 cells", "value": "inhibited"},
      {"measurement": "percentage of CD3 in the tumors", "setting": "E.G7 tumor; E.G7 tumors, p<0.05", "value": "significantly higher"},
      {"measurement": "percentage of M-MDSC in the spleens", "setting": "E.G7 tumor; Ly6C+ in CD11b+ population, p<0.001", "value": "much lower"},
      {"measurement": "E0771 mammary tumor growth (tumor volume)", "setting": "E0771 cells [1]", "value": "antitumor activity"},
      {"measurement": "CD4+ T cells in E0771 tumors", "setting": "E0771 tumors", "value": "promoting accumulation"},
      {"measurement": "CD8+ T cells in E0771 tumors", "setting": "E0771 tumors", "value": "promoting accumulation"},
      {"measurement": "MHCII I-A high macrophages in E0771 tumors", "setting": "E0771 tumors", "value": "promoting accumulation"},
      {"measurement": "NK-T cells in E0771 tumors", "setting": "E0771 tumors", "value": "promoting accumulation"},
      {"measurement": "E0771 tumor growth in CD8+ T-cell depleted CamKK2-/- mice", "setting": "E0771 cells [2]", "value": "without effect"}
    ]},
    {"smiles": "COc1ccc(O)c(C(C)(C)C)c1", "note": "[BHA, Butylated hydroxyanisole]", "values": [
      {"measurement": "M-MDSC number / accumulation", "setting": "bone marrow derived MDSC", "value": "same phenomenon was also observed"},
      {"measurement": "differentiation towards Ly6C-IA+CD11c+ dendritic cells", "setting": "bone marrow derived MDSC", "value": "same phenomenon was also observed"}
    ]},
    {"smiles": "OO", "note": "[H2O2]", "values": [
      {"measurement": "M-MDSC number / accumulation", "setting": "bone marrow derived MDSC", "value": "significantly decreased"},
      {"measurement": "differentiation towards Ly6C-IA+CD11c+ dendritic cells", "setting": "bone marrow derived MDSC", "value": "increased both the count and percentage"}
    ]},
    {"smiles": "CC1(C)CC(NC(=O)C[P+](c2ccccc2)(c2ccccc2)c2ccccc2)CC(C)(C)N1[O]", "note": "[MitoTEMPO]", "values": [
      {"measurement": "M-MDSC number / accumulation", "setting": "bone marrow derived MDSC", "value": "significantly induced M-MDSC accumulation"},
      {"measurement": "differentiation towards Ly6C-IA+CD11c+ dendritic cells", "setting": "bone marrow derived MDSC", "value": "decreased the differentiation"}
    ]}
  ]
}
